The record followed here is US9663478B2, “Benzotriazine oxides as drugs targeting Mycobacterium tuberculosis” (priority 2011, dated 2017).

The subject of one data set is H37Rv. The data set is described as follows: MIC H37Rv (Table E1, Additional BTO Activity Data). In kind it is cell-based. The settings on record: Mycobacterium tuberculosis.
For a further data set, the system named is INH-r. The data set is described as follows: MIC INH-r (Table E1). In kind it is cell-based.
The test system of the next data set is RMP-R. The data set is described as follows: MIC RMP-R (Table E1). Format: cell-based.
The subject of a further data set is OFX-R. The data set is described as follows: MIC OFX-R (Table E1). In kind it is cell-based.
The nature of data set [1]: MP MTT % viable (Table E1). The settings on record: MP (so in the source).

Molecules are shown by their SMILES. Converted amounts (≈) assume the structure as drawn.

Turning to `CN(Cc1ccccn1)c1n[n+]([O-])c2cc3c(cc2[n+]1[O-])CCC3` [Cmpd 2], it took 1 µg/mL (≈ 3.09 µM) to inhibit growth against H37Rv (MIC).
On the same count and under the same terms, under `CN(c1n[n+]([O-])c2cc3c(cc2[n+]1[O-])CCC3)C1(c2ccc(F)cc2)CC1` [Cmpd 4] stands 4.6 µg/mL (≈ 12.6 µM); under `CC(C)(Nc1n[n+]([O-])c2cc3c(cc2[n+]1[O-])CCC3)c1ccc(F)cc1` [Cmpd 5], 4.4 µg/mL (≈ 12.4 µM).
The same measure, in the same setting: under `CCNc1n[n+]([O-])c2c(Cl)c(OC)ccc2[n+]1[O-]` [Cmpd 6] stands 0.4 µg/mL (≈ 1.48 µM); under `[O-][n+]1nc(NC2(c3ccc(F)cc3)CC2)[n+]([O-])c2cc3c(cc21)CCC3` [Cmpd 7], 17.6 µg/mL (≈ 49.9 µM); under `COc1cccc(C2CCN(c3n[n+]([O-])c4cc5c(cc4[n+]3[O-])CCC5(C)C)C2)c1OC` (stereo not shown) [Cmpd 8], 0.7 µg/mL (≈ 1.6 µM).
`CC1(C)CCc2cc3c(cc21)[n+]([O-])nc(N1CCCC1)[n+]3[O-]` [Cmpd 9] displayed an MIC against H37Rv of 0.5 µg/mL (≈ 1.66 µM).
Regarding `[O-][n+]1nc(N2CC3CCCC3C2)[n+]([O-])c2cc3c(cc21)CCC3` (stereo not shown) [Cmpd 10], the MIC in the data set on H37Rv turned out to be 0.391 µg/mL (≈ 1.25 µM); in the data set on INH-r, 0.391 µg/mL (≈ 1.25 µM); against RMP-R, 0.098 µg/mL (≈ 0.314 µM); against OFX-R, 0.195 µg/mL (≈ 0.624 µM). In data set [1], the viability at 0.01 ug/ml was 103%. For the same molecule, the viability at 0.1 ug/ml in data set [1] was 94%. Besides, in data set [1], the viability at 1 ug/ml amounted to 107%.
`CN(Cc1ccc(C(F)(F)F)cc1)c1n[n+]([O-])c2cc3c(cc2[n+]1[O-])CCC3` [Cmpd 11]: the MIC in the data set on H37Rv amounted to 0.098 µg/mL (≈ 0.251 µM); against INH-r it was 0.195 µg/mL (≈ 0.5 µM); against RMP-R, 0.024 µg/mL (≈ 0.0615 µM); against OFX-R, 0.024 µg/mL (≈ 0.0615 µM). For the same molecule, the viability at 0.01 ug/ml in data set [1] was found to be 113%. For the same molecule, the viability at 0.1 ug/ml in data set [1] came to 108%. The viability at 1 ug/ml in data set [1] came out at 104%.
Regarding `COc1ccc(CN(C)c2n[n+]([O-])c3cc4c(cc3[n+]2[O-])CCC4)cc1` [Cmpd 12], the minimum inhibitory concentration (MIC) was found to be 0.391 µg/mL (≈ 1.11 µM) against H37Rv, 0.098 µg/mL (≈ 0.278 µM) in the data set with INH-r, 0.098 µg/mL (≈ 0.278 µM) in the data set with RMP-R and 0.195 µg/mL (≈ 0.553 µM) in the data set on OFX-R. Moreover, the viability at 0.01 ug/ml in data set [1] was determined as 121%. The viability at 0.1 ug/ml in data set [1] came out at 94%. In addition, the viability at 1 ug/ml in data set [1] is 88%.
As to `[O-][n+]1nc(N2CCC(c3ccccc3F)C2)[n+]([O-])c2cc3c(cc21)CCC3` (stereo not shown) [Cmpd 13], the MIC amounted to 0.098 µg/mL (≈ 0.267 µM) against H37Rv, 0.098 µg/mL (≈ 0.267 µM) with INH-r, 0.049 µg/mL (≈ 0.134 µM) against RMP-R and 0.024 µg/mL (≈ 0.0655 µM) with OFX-R. Moreover, the viability at 0.01 ug/ml in data set [1] was 161%. Also, the viability at 0.1 ug/ml in data set [1] was 123%. The viability at 1 ug/ml in data set [1] is 102%.
For the molecule `CN(Cc1ccc(F)cc1)c1n[n+]([O-])c2cc3c(cc2[n+]1[O-])CCC3` [Cmpd 14], the minimal inhibitory concentration (MIC) in the data set on H37Rv stood at 0.195 µg/mL (≈ 0.573 µM); against INH-r it was 0.098 µg/mL (≈ 0.288 µM); in the data set with RMP-R, 0.049 µg/mL (≈ 0.144 µM); with OFX-R, 0.098 µg/mL (≈ 0.288 µM). The viability at 0.01 ug/ml in data set [1] came out at 112%. For the same molecule, the viability at 0.1 ug/ml in data set [1] was 82%. The viability at 1 ug/ml in data set [1] amounted to 1%.
Take `[O-][n+]1nc(N2CCC(c3ccccc3Cl)C2)[n+]([O-])c2cc3c(cc21)CCC3` (stereo not shown) [Cmpd 15]: the minimal inhibitory concentration (MIC) with H37Rv was 0.098 µg/mL (≈ 0.256 µM); with INH-r it was 0.098 µg/mL (≈ 0.256 µM); in the data set on RMP-R it was 0.098 µg/mL (≈ 0.256 µM); in the data set with OFX-R, 0.024 µg/mL (≈ 0.0627 µM). Also, the viability at 0.01 ug/ml in data set [1] was found to be 102%. Further, the viability at 0.1 ug/ml in data set [1] was determined as 75%. In addition, in data set [1], the viability at 1 ug/ml is 58%.
In the case of `COc1ccc(OC)c(C2CCN(c3n[n+]([O-])c4cc5c(cc4[n+]3[O-])CCC5)C2)c1` (stereo not shown) [Cmpd 16], the minimal inhibitory concentration (MIC) against H37Rv was found to be 0.195 µg/mL (≈ 0.477 µM); against INH-r, 0.098 µg/mL (≈ 0.24 µM); in the data set on RMP-R, 0.195 µg/mL (≈ 0.477 µM); against OFX-R, 0.098 µg/mL (≈ 0.24 µM). Besides, the viability at 0.01 ug/ml in data set [1] is 122%. Further, in data set [1], the viability at 0.1 ug/ml is 97%. For the same molecule, the viability at 1 ug/ml in data set [1] amounted to 108%.
For `[O-][n+]1nc(N2CCC(c3ccc(F)cc3)C2)[n+]([O-])c2cc3c(cc21)CCC3` (stereo not shown) [Cmpd 17], the MIC in the data set on H37Rv worked out at 0.098 µg/mL (≈ 0.267 µM); in the data set with INH-r, 0.049 µg/mL (≈ 0.134 µM); against RMP-R, 0.027 µg/mL (≈ 0.0737 µM); against OFX-R, 0.049 µg/mL (≈ 0.134 µM). In addition, the viability at 0.01 ug/ml in data set [1] is 104%. The viability at 0.1 ug/ml in data set [1] stood at 82%. In addition, the viability at 1 ug/ml in data set [1] is 69%.
With `COc1cccc(C2CCN(c3n[n+]([O-])c4cc5c(cc4[n+]3[O-])CCC5)C2)c1OC` (stereo not shown) [Cmpd 18], the minimal inhibitory concentration (MIC) in the data set with H37Rv came to 0.391 µg/mL (≈ 0.957 µM); with INH-r, 0.195 µg/mL (≈ 0.477 µM); against RMP-R, 0.391 µg/mL (≈ 0.957 µM); in the data set on OFX-R, 0.049 µg/mL (≈ 0.12 µM). Besides, in data set [1], the viability at 0.01 ug/ml was 85%. For the same molecule, in data set [1], the viability at 0.1 ug/ml is 55%. Besides, in data set [1], the viability at 1 ug/ml worked out at 33%.

A word on the MIC: it is the smallest concentration in the dilution series that meets the test's criterion for growth inhibition. A high value points to a less susceptible organism. A word on the viability: it is a read-out of living cells in per cent, often relative to untreated cells.
